In one experiment the target is T1, GLUT1 (Homo sapiens, UniProt P11166).
T1 sequence (P11166 1-492): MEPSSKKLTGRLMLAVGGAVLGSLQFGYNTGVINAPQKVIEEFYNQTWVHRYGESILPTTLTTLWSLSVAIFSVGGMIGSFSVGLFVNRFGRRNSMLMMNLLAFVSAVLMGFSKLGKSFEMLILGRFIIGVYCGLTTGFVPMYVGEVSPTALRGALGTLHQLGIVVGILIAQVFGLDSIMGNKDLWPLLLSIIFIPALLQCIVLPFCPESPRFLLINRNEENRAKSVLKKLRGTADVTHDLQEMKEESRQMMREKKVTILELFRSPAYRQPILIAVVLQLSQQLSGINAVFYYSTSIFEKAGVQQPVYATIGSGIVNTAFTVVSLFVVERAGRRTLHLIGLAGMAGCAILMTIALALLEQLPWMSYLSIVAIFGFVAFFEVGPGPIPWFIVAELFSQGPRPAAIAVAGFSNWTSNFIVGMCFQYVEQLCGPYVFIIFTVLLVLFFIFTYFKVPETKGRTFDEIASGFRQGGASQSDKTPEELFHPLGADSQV
Put plainly: Indirect measurement of GLUT1 activity by quantification of intracellular ATP levels (glucose induced ATP increase). Format: cell-based. Details: endogenous in cells; host or cells: DLD1 or CHO-K1. The settings on record: DLD1 cells; 0.1 mM glucose, 1 μM Rotenone, 15 min; CellTiter-Glo ATP readout; IC50 values standardized to cytochalasin B IC50 values; read-out: IC50 regarding glucose induced ATP increase (GLUT1 inhibition). In outline:
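Intracellular ATP was measured by CellTiter-Glo luminescence as an indirect readout of transport: glucose-driven for GLUT1, fructose-driven for GLUT2. DLD1 or CHO-K1 cells were used alongside an oxidative phosphorylation inhibitor. Beforehand, cells were held overnight in glucose-free 1% FCS medium to deplete ATP.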
For the compound `Cc1c(NC(=O)c2cc(C(N)=O)nc3cc(F)ccc23)c(C(F)(F)F)nn1Cc1ccccc1OC(F)(F)F` [Example 1703], the IC50 turned out to be 387 nM.

Still in this experiment, the particulars now being: read-out: IC50 regarding glucose induced ATP increase (GLUT1 inhibition).
Turning to `CCOC(=O)c1cc(Cn2nc(C(F)(F)F)c(NC(=O)c3cc(C(N)=O)nc4cc(F)ccc34)c2C)on1` [Example 1677], the half-maximal inhibitory concentration (IC50) is 353 nM.

`Cc1c(NC(=O)c2cc(C(N)=O)nc3cc(F)ccc23)c(C(F)(F)F)nn1Cc1nc2ccccc2o1` [Example 1678]: the half-maximal inhibitory concentration (IC50) was 57.7 nM.

As for `Cc1c(NC(=O)c2cc(C(N)=O)nc3ccccc23)c(C(F)(F)F)nn1Cc1ccc(C#N)s1` [Example 1679], the half-maximal inhibitory concentration (IC50) was found to be 18.6 nM.

For the compound `COC(=O)c1coc(Cn2nc(C(F)(F)F)c(NC(=O)c3cc(C(N)=O)nc4ccccc34)c2C)n1` [Example 1680], the concentration for half-maximal inhibition (IC50) was found to be 146 nM.

`COC(=O)c1coc(Cn2nc(C(F)(F)F)c(NC(=O)c3cc(C(N)=O)nc4cc(F)ccc34)c2C)n1` [Example 1681]: the half-inhibitory concentration (IC50) came out at 86.7 nM.

Consider `COC(=O)c1coc(Cn2nc(C(F)(F)F)c(NC(=O)c3cc(C(N)=O)nc4cc(F)c(Cl)cc34)c2C)n1` [Example 1682], for which the IC50 stood at 36.7 nM.

On to `CCOC(=O)c1cc(Cn2nc(C(F)(F)F)c(NC(=O)c3cc(C(N)=O)nc4cc(F)c(Cl)cc34)c2C)on1` [Example 1683], for which the IC50 was 109 nM.

Regarding `Cc1c(NC(=O)c2cc(C(N)=O)nc3ccccc23)c(C(F)(F)F)nn1Cc1nc(C(=O)O)co1` [Example 1684], the half-maximal inhibitory concentration (IC50) is 721 nM.

Turning to `Cc1c(NC(=O)c2cc(C(N)=O)nc3cc(F)c(Cl)cc23)c(C(F)(F)F)nn1Cc1nc(C(=O)O)co1` [Example 1686], the IC50 was 1290 nM.

As to `Cc1c(NC(=O)c2cc(C(N)=O)nc3cc(F)ccc23)c(C(F)(F)F)nn1Cc1cccc(C#N)n1` [Example 1687], the half-inhibitory concentration (IC50) stood at 128 nM.

For `Cc1c(NC(=O)c2cc(C(N)=O)nc3cccc(F)c23)c(C(F)(F)F)nn1Cc1cccc(C#N)n1` [Example 1688], the half-maximal inhibitory concentration (IC50) is 86.8 nM.

Consider `Cc1c(NC(=O)c2cc(C(N)=O)nc3cc(F)c(Cl)cc23)c(C(F)(F)F)nn1Cc1cccc(C#N)n1` [Example 1689], for which the IC50 came out at 30.9 nM.

For the compound `Cc1c(NC(=O)c2cc(C(N)=O)nc3ccccc23)c(C(F)(F)F)nn1Cc1cccc(C#N)n1` [Example 1690], the IC50 was 353 nM.

Consider `Cc1nn(CC(=O)Nc2cccc(C#N)c2)c(C)c1NC(=O)c1cc(C(N)=O)nc2ccccc12` [Example 1691], for which the IC50 was found to be 556 nM.

Turning to `Cc1nn(CC(=O)Nc2ccc(F)cc2)c(C)c1NC(=O)c1cc(C(N)=O)nc2ccccc12` [Example 1692], the concentration for half-maximal inhibition (IC50) stood at 208 nM.

With `Cc1nn(CC(=O)N(C)c2ccc(F)cc2)c(C)c1NC(=O)c1cc(C(N)=O)nc2ccccc12` [Example 1693], the half-maximal inhibitory concentration (IC50) was 43.6 nM.

Consider `Cc1cc(Cn2nc(C(F)(F)F)c(NC(=O)c3cc(C(N)=O)nc4cccc(F)c34)c2C)ccc1C#N` [Example 1694], for which the IC50 is 1.2 nM.

For the compound `Cc1cc(Cn2nc(C(F)(F)F)c(NC(=O)c3cc(C(N)=O)nc4cc(F)ccc34)c2C)ccc1C#N` [Example 1695], the IC50 worked out at 4.7 nM.

For the compound `Cc1cc(Cn2nc(C)c(NC(=O)c3cc(C(N)=O)nc4cc(F)c(Cl)cc34)c2C)ccc1C#N` [Example 1696], the half-maximal inhibitory concentration (IC50) came to 0.9 nM.

Regarding `Cc1cc(Cn2nc(C)c(NC(=O)c3cc(C(N)=O)nc4cccc(F)c34)c2C)ccc1C#N` [Example 1697], the IC50 came to 0.5 nM.

For the compound `Cc1cc(Cn2nc(C)c(NC(=O)c3cc(C(N)=O)nc4cc(F)ccc34)c2C)ccc1C#N` [Example 1698], the IC50 was determined as 1.2 nM.

For the compound `Cc1ccc(C#N)c(Cn2nc(C)c(NC(=O)c3cc(C(N)=O)nc4cc(F)c(Cl)cc34)c2C)c1` [Example 1699], the concentration for half-maximal inhibition (IC50) turned out to be 11.3 nM.

Consider `Cc1ccc(C#N)c(Cn2nc(C(F)(F)F)c(NC(=O)c3cc(C(N)=O)nc4cc(F)ccc34)c2C)c1` [Example 1700], for which the concentration for half-maximal inhibition (IC50) is 38.6 nM.

As to `Cc1nn(CC(=O)Nc2cccc(F)c2)c(C)c1NC(=O)c1cc(C(N)=O)nc2ccccc12` [Example 1701], the 50% inhibitory concentration (IC50) stood at 165 nM.

On to `Cc1c(NC(=O)c2cc(C(N)=O)nc3ccccc23)c(C(F)(F)F)nn1Cc1cc(CN2CCOCC2)on1` [Example 1702], for which the 50% inhibitory concentration (IC50) stood at 140 nM.

As to `Cc1c(NC(=O)c2cc(C(N)=O)nc3cc(F)c(Cl)cc23)c(C(F)(F)F)nn1Cc1ccccc1OC(F)(F)F` [Example 1704], the half-inhibitory concentration (IC50) was found to be 110 nM.

Turning to `Cc1c(NC(=O)c2cc(C(N)=O)nc3ccccc23)c(C(F)(F)F)nn1Cc1ccccc1OC(F)(F)F` [Example 1705], the IC50 was 172 nM.

For `Cc1c(NC(=O)c2cc(C(N)=O)nc3cccc(F)c23)c(C(F)(F)F)nn1Cc1ccccc1OC(F)(F)F` [Example 1706], the IC50 amounted to 616 nM.

For the compound `Cc1nn(Cc2cccc(C#N)n2)c(C)c1NC(=O)c1cc(C(N)=O)nc2cc(F)ccc12` [Example 1707], the IC50 was found to be 124 nM.

Turning to `Cc1nn(Cc2cccc(C#N)n2)c(C)c1NC(=O)c1cc(C(N)=O)nc2ccccc12` [Example 1708], the half-maximal inhibitory concentration (IC50) amounted to 147 nM.

As for `Cc1nn(Cc2cccc(C#N)n2)c(C)c1NC(=O)c1cc(C(N)=O)nc2cccc(F)c12` [Example 1709], the IC50 was 28.1 nM.

With `Cc1cc(F)ccc1Cn1nc(C(F)(F)F)c(NC(=O)c2cc(C(N)=O)nc3cc(F)ccc23)c1C` [Example 1710], the concentration for half-maximal inhibition (IC50) was determined as 3.8 nM.

Regarding `Cc1cc(F)ccc1Cn1nc(C(F)(F)F)c(NC(=O)c2cc(C(N)=O)nc3cccc(F)c23)c1C` [Example 1711], the 50% inhibitory concentration (IC50) amounted to 4.4 nM.

Regarding `Cc1cc(F)ccc1Cn1nc(C(F)(F)F)c(NC(=O)c2cc(C(N)=O)nc3cc(F)c(Cl)cc23)c1C` [Example 1712], the IC50 stood at 6.5 nM.

As for `Cc1cc(F)ccc1Cn1nc(C(F)(F)F)c(NC(=O)c2cc(C(N)=O)nc3ccccc23)c1C` [Example 1713], the IC50 was 5 nM.

Take `Cc1c(NC(=O)c2cc(C(N)=O)nc3cc(F)ccc23)c(C(F)(F)F)nn1Cc1ccc(CC(F)(F)F)cc1` [Example 1714]: the 50% inhibitory concentration (IC50) is 6.4 nM.

Take `Cc1c(NC(=O)c2cc(C(N)=O)nc3cccc(F)c23)c(C(F)(F)F)nn1Cc1ccc(CC(F)(F)F)cc1` [Example 1715]: the concentration for half-maximal inhibition (IC50) was found to be 1.5 nM.

Regarding `Cc1c(NC(=O)c2cc(C(N)=O)nc3cc(F)c(Cl)cc23)c(C(F)(F)F)nn1Cc1ccc(CC(F)(F)F)cc1` [Example 1716], the IC50 was 3 nM.

In the case of `Cc1c(NC(=O)c2cc(C(N)=O)nc3ccccc23)c(C(F)(F)F)nn1Cc1ccc(CC(F)(F)F)cc1` [Example 1717], the IC50 is 2.5 nM.

The record behind these values is patent US20170037028A1 (BAYER PHARMA AKTIENGESELLSCHAFT, priority 2013, published 2017).
